The source of these data is patent publication US20260035365A1, “1H-PYRROLO[3,2-B]PYRIDINE DERIVATIVES AS IRREVERSIBLE INHIBITORS OF MUTANT EGFR FOR THE TREATMENT OF CANCER” (Bayer Aktiengesellschaft, priority 2022, published 2026).

Test [1] addresses mutEGFR (D770_N771insSVD) (Homo sapiens, UniProt P00533, INS767SVD). Description: Exon20-mutant-EGFR (D770_N771insSVD) TR-FRET kinase assay. It is filed as biochemical. To be noted: 2 mM ATP, 15 min preincubation. In outline: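 GST-fused human EGFR fragment R669-A1210 carrying the SVD insertion, Sf9-expressed, typically 15 pg/μl, was preincubated with compound for 15 min at 22° C in pH 7.0 Hepes/MgCl2 buffer. Phosphorylation was read by HTRF (665/620 nm ratio), normalised to no-inhibitor and no-enzyme controls.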
On the technique in general: In TR-FRET formats the signal depends on donor and acceptor labels being close together.

Test [2] has as its system BA/F3 (EGFR D770_N771 insSVD T790M) cells. The test can be described thus: Ba/F3 cell survival assay (Cell Titer-Glo), EGFR-insSVD T790M. It is filed as cell-based. To be noted: Ba/F3 EGFR-D770-N771ins_SVD; 48 h, without IL-3, with EGF. The procedure: 293T cells from ATCC were transfected with pBABEpuro expression constructs for WT EGFR or EGFR-insSVD, or EGFR-insSVD T790M, and pCL-Eco packaging vector using Fugene-6 transfection reagent from Promega. Plates were incubated at 37° C. for 48 h. Retrovirus was harvested by filtering the media supernatant through a 0.45 μm filter.
Ba/F3 cells purchased from DSMZ were grown in RPMI+10% FBS+10 ng/mL IL-3 and infected with filtered retroviral supernatant at a 1:2 dilution. Polybrene was added to a concentration of 8 μg/mL, plates were spun for 90 min, and incubated for 16 h at 37° C. 2 μg/mL puromycin was added to the infected cells 24 h after infection and cells were continually grown in the presence of puromycin and 10 ng/mL IL-3. Following stably expressing Ba/F3 cell lines were generated: Ba/F3-EGFR-WT, Ba/F3-EGFR-insSVD, Ba/F3-EGFR-insSVD T790M, (Ba/F3-vector-control).
For cell survival assays, Ba/F3 cells were grown to a density of 1-2 million cells per mL, spun down and resuspended in media without IL-3, and replated at a concentration of 200,000-500,000 cells per mL. The cells ectopically expressing WT EGFR, EGFR-insSVD, or EGFR-insSVD T790M were plated with 10 ng/mL Millipore Culture grade EGF. The cells ectopically expressing pBABEpuro empty vector were plated with 10 ng/mL IL-3.
2 days later, cells were plated in 50 μL in a 384 well plate at a concentration of 4000 cells per well for cells assayed in the absence of IL-3 and 2000 cells per well for cells assayed in the presence of IL-3. 100 nL of compound was added to each well using a 100 nL pin head, and plates were incubated at 37° C. for 48 h.
Cell viability was measured by adding 20 μL of Cell Titer-Glo Luminescent Cell Viability Reagent diluted 1:3 in PBS. Plates were sealed with Perkin Elmer Top-Seal, inverted several times to mix, and immediately centrifuged at 1000 rpm for 2 min. Plates were incubated in low light conditions for 8-10 min and luminescence was measured.

The target in test [3] is mutEGFR (D770_N771insNPG, T790). Description: mutEGFR (D770_N771insNPG, T790) kinase assay. It is filed as biochemical, human.
In the next test the test system is BA/F3 (insSVD) cells. Description: Ba/F3 cell survival assay (Cell Titer-Glo), EGFR-insSVD. As to conditions: Mus musculus, BaF3, 48 h, without IL-3, with EGF. It is filed as cell-based. In outline:
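Ba/F3 cells stably expressing EGFR-insSVD or insSVD T790M via retrovirus (puromycin-selected), switched from IL-3 to 10 ng/mL EGF for 2 days, then plated at 4000 cells/well. Compound added by 100 nL pin transfer; 48 h at 37° C. Viability by CellTiter-Glo luminescence.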
(In general: In ATP-based viability assays light output follows the ATP content of the culture.)

Sequence of mutEGFR (D770_N771insSVD) (P00533 with tags, fused parts or gaps INS767SVD limits assumed): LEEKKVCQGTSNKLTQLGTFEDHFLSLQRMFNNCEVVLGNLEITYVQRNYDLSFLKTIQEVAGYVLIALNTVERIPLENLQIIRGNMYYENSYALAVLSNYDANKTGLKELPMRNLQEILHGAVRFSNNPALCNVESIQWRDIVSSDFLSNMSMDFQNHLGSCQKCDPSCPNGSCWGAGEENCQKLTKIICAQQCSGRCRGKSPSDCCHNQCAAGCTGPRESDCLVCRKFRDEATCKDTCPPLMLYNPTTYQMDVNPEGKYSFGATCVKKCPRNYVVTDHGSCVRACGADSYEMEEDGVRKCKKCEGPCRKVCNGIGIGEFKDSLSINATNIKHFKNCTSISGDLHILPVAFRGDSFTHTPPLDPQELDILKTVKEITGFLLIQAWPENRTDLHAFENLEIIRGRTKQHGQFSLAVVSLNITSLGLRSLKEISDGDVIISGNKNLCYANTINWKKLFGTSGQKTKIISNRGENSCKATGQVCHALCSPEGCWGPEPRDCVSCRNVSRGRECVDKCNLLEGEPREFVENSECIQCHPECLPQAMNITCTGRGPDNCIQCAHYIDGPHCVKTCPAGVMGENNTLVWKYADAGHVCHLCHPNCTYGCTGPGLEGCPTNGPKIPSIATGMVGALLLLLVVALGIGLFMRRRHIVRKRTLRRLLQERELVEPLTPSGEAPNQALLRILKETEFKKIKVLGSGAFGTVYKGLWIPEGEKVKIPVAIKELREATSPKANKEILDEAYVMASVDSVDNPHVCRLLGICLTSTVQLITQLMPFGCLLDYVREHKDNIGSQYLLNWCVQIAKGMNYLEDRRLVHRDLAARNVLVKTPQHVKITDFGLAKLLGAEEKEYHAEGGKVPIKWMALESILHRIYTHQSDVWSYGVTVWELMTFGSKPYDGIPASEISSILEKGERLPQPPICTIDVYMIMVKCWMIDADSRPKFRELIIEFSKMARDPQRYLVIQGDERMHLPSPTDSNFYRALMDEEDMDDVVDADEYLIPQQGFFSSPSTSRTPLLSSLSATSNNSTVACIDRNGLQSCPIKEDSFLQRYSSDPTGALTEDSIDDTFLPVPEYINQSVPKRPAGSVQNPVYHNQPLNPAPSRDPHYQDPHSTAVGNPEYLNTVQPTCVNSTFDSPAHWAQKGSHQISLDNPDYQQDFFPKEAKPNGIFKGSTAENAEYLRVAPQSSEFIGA
Sequence of mutEGFR (D770_N771insNPG, T790) (P00533 with tags, fused parts or gaps INS770NPG limits assumed): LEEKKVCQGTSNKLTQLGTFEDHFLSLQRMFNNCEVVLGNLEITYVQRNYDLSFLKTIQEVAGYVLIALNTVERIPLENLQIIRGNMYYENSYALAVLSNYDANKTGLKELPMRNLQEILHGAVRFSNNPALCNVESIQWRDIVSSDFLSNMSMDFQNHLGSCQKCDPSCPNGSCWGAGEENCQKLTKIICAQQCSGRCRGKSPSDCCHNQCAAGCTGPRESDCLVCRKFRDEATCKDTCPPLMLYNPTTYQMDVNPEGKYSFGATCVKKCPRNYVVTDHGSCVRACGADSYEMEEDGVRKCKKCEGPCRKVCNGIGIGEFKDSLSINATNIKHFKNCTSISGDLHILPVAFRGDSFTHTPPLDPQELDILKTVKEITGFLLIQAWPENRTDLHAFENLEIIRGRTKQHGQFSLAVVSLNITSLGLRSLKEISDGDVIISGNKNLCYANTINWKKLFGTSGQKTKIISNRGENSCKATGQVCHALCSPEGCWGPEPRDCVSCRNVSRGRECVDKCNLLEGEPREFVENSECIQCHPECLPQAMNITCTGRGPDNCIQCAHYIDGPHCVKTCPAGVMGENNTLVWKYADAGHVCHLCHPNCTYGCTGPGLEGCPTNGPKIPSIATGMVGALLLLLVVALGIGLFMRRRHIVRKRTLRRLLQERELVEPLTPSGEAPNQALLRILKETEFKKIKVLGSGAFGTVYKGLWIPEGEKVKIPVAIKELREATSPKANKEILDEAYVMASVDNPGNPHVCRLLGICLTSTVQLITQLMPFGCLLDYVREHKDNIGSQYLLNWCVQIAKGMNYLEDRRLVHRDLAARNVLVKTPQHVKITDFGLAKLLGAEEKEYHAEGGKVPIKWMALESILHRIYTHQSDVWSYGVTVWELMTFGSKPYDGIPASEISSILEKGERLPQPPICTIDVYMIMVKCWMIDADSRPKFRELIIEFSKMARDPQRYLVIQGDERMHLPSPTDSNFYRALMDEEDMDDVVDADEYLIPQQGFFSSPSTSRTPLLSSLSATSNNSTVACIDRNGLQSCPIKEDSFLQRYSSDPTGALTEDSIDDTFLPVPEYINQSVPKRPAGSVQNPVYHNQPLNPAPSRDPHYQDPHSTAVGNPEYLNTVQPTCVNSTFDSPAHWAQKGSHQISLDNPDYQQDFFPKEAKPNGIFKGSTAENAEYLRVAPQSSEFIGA

Consider `C=CC(=O)N(C)CCOc1cnccc1-c1[nH]c2cccnc2c1-c1ccc(Cl)cc1` [Example 11, N-[2-({4-[3-(4-chlorophenyl)-1H-pyrrolo[3,2-b]pyridin-2-yl]pyridin-3-yl}oxy)ethyl]-N-methylprop-2-enamide], for which the IC50 is 13.4 nM in test [1], 9980 nM in test [2], 46.2 nM in test [3] and 1120 nM in the test with BA/F3 (insSVD) cells.

As for `C=CC(=O)N(C)CCOc1cnccc1-c1[nH]c2cccnc2c1-c1ccc(F)c(C)c1` [Example 12, N-[2-({4-[3-(4-fluoro-3-methylphenyl)-1H-pyrrolo[3,2-b]pyridin-2-yl]pyridin-3-yl}oxy)ethyl]-N-methylprop-2-enamide], the IC50 in test [1] was found to be 8.68 nM; in test [2] it was 9100 nM; in test [3] it was 14.2 nM; with BA/F3 (insSVD) cells, 538 nM.

Consider `C=CC(=O)N(C)CCOc1cnccc1-c1[nH]c2cccnc2c1-c1ccc(Cl)c(C(=O)OC)c1` [Example 13, Methyl 2-chloro-5-[2-(3-{2-[methyl(prop-2-enoyl)amino]ethoxy}pyridin-4-yl)-1H-pyrrolo[3,2-b]pyridin-3-yl]benzoate], for which the IC50 amounted to 720 nM in test [1], 9980 nM in test [2], 1390 nM in test [3] and 6190 nM with BA/F3 (insSVD) cells.

Regarding `C=CC(=O)N(C)CCOc1cnccc1-c1[nH]c2cccnc2c1-c1cccc(F)c1` [Example 14, N-[2-({4-[3-(3-fluorophenyl)-1H-pyrrolo[3,2-b]pyridin-2-yl]pyridin-3-yl}oxy)ethyl]-N-methylprop-2-enamide], the IC50 stood at 16.4 nM in test [1], 9980 nM in test [2], 46.3 nM in test [3] and 833 nM in the test with BA/F3 (insSVD) cells.

As for `C=CC(=O)N(C)CCOc1cnccc1-c1[nH]c2cccnc2c1-c1ccc(Cl)c(OC)c1` [Example 15, N-[2-({4-[3-(4-chloro-3-methoxyphenyl)-1H-pyrrolo[3,2-b]pyridin-2-yl]pyridin-3-yl}oxy)ethyl]-N-methylprop-2-enamide], the IC50 in test [1] was found to be 1540 nM; in test [2], 9980 nM; in test [3], 4850 nM; in the test with BA/F3 (insSVD) cells it was 9240 nM.

For the compound `C=CC(=O)N(C)CCOc1cnccc1-c1[nH]c2cccnc2c1-c1ccccc1OC` [Example 17, N-[2-({4-[3-(2-methoxyphenyl)-1H-pyrrolo[3,2-b]pyridin-2-yl]pyridin-3-yl}oxy)ethyl]-N-methylprop-2-enamide], the 50% inhibitory concentration (IC50) in test [1] is 569 nM; in test [2], 9980 nM; in test [3], 1700 nM; with BA/F3 (insSVD) cells it was 8160 nM.

Regarding `C=CC(=O)N(C)CCOc1cnccc1-c1[nH]c2cccnc2c1-c1ccc2cccnc2c1` [Example 18, N-methyl-N-[2-({4-[3-(quinolin-7-yl)-1H-pyrrolo[3,2-b]pyridin-2-yl]pyridin-3-yl}oxy)ethyl]prop-2-enamide], the IC50 in test [1] is 549 nM; in test [2] it was 9980 nM; in test [3], 1670 nM; in the test with BA/F3 (insSVD) cells it was 7980 nM.

As to `C=CC(=O)N(C)CCOc1cnccc1-c1[nH]c2cccnc2c1-c1cccc(F)c1OC` [Example 19, N-[2-({4-[3-(3-fluoro-2-methoxyphenyl)-1H-pyrrolo[3,2-b]pyridin-2-yl]pyridin-3-yl}oxy)ethyl]-N-methylprop-2-enamide], the half-inhibitory concentration (IC50) in test [1] was determined as 178 nM; in test [2] it was 9980 nM; in test [3], 797 nM; with BA/F3 (insSVD) cells, 6100 nM.

For the compound `C=CC(=O)N(C)CCOc1cnccc1-c1[nH]c2cccnc2c1-c1ccc(Cl)c(CC)c1` [Example 20, N-[2-({4-[3-(4-chloro-3-ethylphenyl)-1H-pyrrolo[3,2-b]pyridin-2-yl]pyridin-3-yl}oxy)ethyl]-N-methylprop-2-enamide], the IC50 in test [1] stood at 365 nM; in test [2] it was 8990 nM; in test [3], 779 nM; in the test on BA/F3 (insSVD) cells it was 4650 nM.

As for `C=CC(=O)N(C)CCOc1cnccc1-c1[nH]c2cccnc2c1-c1cccc(Cl)c1OC` [Example 21, N-[2-({4-[3-(3-chloro-2-methoxyphenyl)-1H-pyrrolo[3,2-b]pyridin-2-yl]pyridin-3-yl}oxy)ethyl]-N-methylprop-2-enamide], the IC50 came to 290 nM in test [1], 9980 nM in test [2], 2260 nM in test [3] and 4160 nM with BA/F3 (insSVD) cells.

As for `C=CC(=O)N(C)CCOc1cnccc1-c1[nH]c2cccnc2c1-c1cccc(Cl)c1` [Example 22, N-[2-({4-[3-(3-chlorophenyl)-1H-pyrrolo[3,2-b]pyridin-2-yl]pyridin-3-yl}oxy)ethyl]-N-methylprop-2-enamide], the half-maximal inhibitory concentration (IC50) in test [1] was determined as 6.8 nM; in test [2], 7640 nM; in test [3], 12.2 nM; in the test with BA/F3 (insSVD) cells it was 262 nM.

Regarding `C=CC(=O)N(C)CCOc1cnccc1-c1[nH]c2cccnc2c1-c1ccc(Cl)c(Cl)c1` [Example 23, N-[2-({4-[3-(3,4-dichlorophenyl)-1H-pyrrolo[3,2-b]pyridin-2-yl]pyridin-3-yl}oxy)ethyl]-N-methylprop-2-enamide], the IC50 was found to be 36.8 nM in test [1], 8860 nM in test [2], 49.3 nM in test [3] and 2150 nM in the test on BA/F3 (insSVD) cells.

For `C=CC(=O)N(C)CCOc1cnccc1-c1[nH]c2cccnc2c1-c1ccc(F)c(Cl)c1` [Example 24, N-[2-({4-[3-(3-chloro-4-fluorophenyl)-1H-pyrrolo[3,2-b]pyridin-2-yl]pyridin-3-yl}oxy)ethyl]-N-methylprop-2-enamide], the IC50 came out at 11.9 nM in test [1], 8320 nM in test [2], 20.9 nM in test [3] and 726 nM in the test on BA/F3 (insSVD) cells.

With `C=CS(=O)(=O)N(C)CCOc1cnccc1-c1[nH]c2cccnc2c1-c1ccccc1` [Example 25, N-methyl-N-(2-{[4-(3-phenyl-1H-pyrrolo[3,2-b]pyridin-2-yl)pyridin-3-yl]oxy}ethyl)ethenesulfonamide], the IC50 was determined as 0.501 nM in test [1], 3860 nM in test [2], 2.08 nM in test [3] and 38.8 nM with BA/F3 (insSVD) cells.

As to `CN(C)C/C=C/C(=O)N(C)CCOc1cnccc1-c1[nH]c2cccnc2c1-c1ccccc1` [Example 26, (2E)-4-(dimethylamino)-N-methyl-N-(2-{[4-(3-phenyl-1H-pyrrolo[3,2-b]pyridin-2-yl)pyridin-3-yl]oxy}ethyl)but-2-enamide], the IC50 in test [1] came out at 65.9 nM; in test [2] it was 9980 nM; in test [3], 333 nM; with BA/F3 (insSVD) cells, 1530 nM.

With `C#CC(=O)N(C)CCOc1cnccc1-c1[nH]c2cccnc2c1-c1ccccc1` [Example 27, N-methyl-N-(2-{[4-(3-phenyl-1H-pyrrolo[3,2-b]pyridin-2-yl)pyridin-3-yl]oxy}ethyl)prop-2-ynamide], the IC50 in test [1] was 19.7 nM; in test [2], 8410 nM; in test [3] it was 69.8 nM; in the test with BA/F3 (insSVD) cells it was 532 nM.

As for `CC#CC(=O)N(C)CCOc1cnccc1-c1[nH]c2cccnc2c1-c1ccccc1` [Example 28, N-methyl-N-(2-{[4-(3-phenyl-1H-pyrrolo[3,2-b]pyridin-2-yl)pyridin-3-yl]oxy}ethyl)but-2-ynamide], the IC50 in test [1] was 6500 nM; in test [2] it was 9980 nM; in test [3] it was over 20000 nM; in the test with BA/F3 (insSVD) cells, 9980 nM.

The term IC50 denotes the concentration needed to halve the response being measured.
